Results on three compounds are retold here after ChEMBL document CHEMBL2203017, “STAT6 phosphorylation inhibitors block eotaxin-3 secretion in bronchial epithelial cells” (Bioorg Med Chem, 2012).

The target in series [1] is T1, Signal transducer and activator of transcription 6 (Homo sapiens) (UniProt P42226).
T1 sequence (whole entry): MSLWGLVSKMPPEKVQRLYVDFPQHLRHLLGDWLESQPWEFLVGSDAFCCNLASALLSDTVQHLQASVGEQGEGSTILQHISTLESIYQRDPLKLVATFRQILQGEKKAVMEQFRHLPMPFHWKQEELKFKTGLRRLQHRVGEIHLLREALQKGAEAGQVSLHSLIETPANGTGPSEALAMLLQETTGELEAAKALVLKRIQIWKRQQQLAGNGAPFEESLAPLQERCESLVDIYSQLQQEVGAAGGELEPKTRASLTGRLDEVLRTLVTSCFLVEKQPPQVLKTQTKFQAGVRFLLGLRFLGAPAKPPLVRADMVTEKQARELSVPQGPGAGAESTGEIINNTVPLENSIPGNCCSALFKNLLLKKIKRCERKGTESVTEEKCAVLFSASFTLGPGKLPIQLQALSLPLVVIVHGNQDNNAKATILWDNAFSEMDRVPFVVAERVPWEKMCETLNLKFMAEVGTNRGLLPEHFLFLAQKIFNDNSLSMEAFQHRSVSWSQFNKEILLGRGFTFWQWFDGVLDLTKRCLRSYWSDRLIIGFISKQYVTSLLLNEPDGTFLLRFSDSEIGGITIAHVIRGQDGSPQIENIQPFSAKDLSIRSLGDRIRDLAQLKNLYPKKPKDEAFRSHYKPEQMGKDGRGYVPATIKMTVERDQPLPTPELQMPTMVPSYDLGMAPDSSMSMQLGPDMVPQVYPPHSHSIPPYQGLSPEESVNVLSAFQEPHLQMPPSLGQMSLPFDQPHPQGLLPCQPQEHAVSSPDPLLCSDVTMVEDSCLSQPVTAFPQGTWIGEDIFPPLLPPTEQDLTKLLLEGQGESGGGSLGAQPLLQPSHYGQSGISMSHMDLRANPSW
Put plainly: Inhibition of IL-4-induced human STAT6 tyrosine phosphorylation expressed in 293-EBNA cells at 10 uM incubated for 1 hr prior to IL-4-induction measured after 6 hrs by Western blot analysis. Format: cell-based. On the technique in general: In western blotting, separated proteins are transferred to a membrane and probed.

Series [2] concerns the target T1, Signal transducer and activator of transcription 6 (Homo sapiens). The series is described as follows: Inhibition of human N-terminal HA/myc tagged STAT6 expressed in 293-EBNA cells assessed as effect on STAT6 dimer configuration after 1 hr by immunoblot analysis. Format: cell-based.
The target is the same in series [3]. Put plainly: Inhibition of interaction of human recombinant STAT6 with tyrosine phosphorylated IL-4Ralpha peptide at 20 uM after 1 hr by ELISA. In general terms: ELISA stands for enzyme-linked immunosorbent assay.
Series [4] has the same target. The series is described as follows: Inhibition of human N-terminal HA/myc tagged STAT6 expressed in 293-EBNA cells assessed as inhibition of IL-4-induced STAT6 inactive dimer-tyrosine phosphorylation after 1 hr by immunoblot analysis. Format: cell-based.
A short description of series [5]: Cytotoxicity against human 293-EBNA cells assessed as effect on luciferase activity at 10 uM after 1 hr by Renilla reniformis luciferase reporter gene assay. Type of series: cell-based. On the technique in general: Reporter assays use an easily measured gene product as a stand-in for the process of interest.
The target in series [6] is Signal transducer and activator of transcription 6 (Homo sapiens) (UniProt P42226). Put plainly: Inhibition of human STAT6 expressed in BEAS2B cells assessed as inhibition of IL4-induced STAT6 transcriptional activation.
The target is the same in series [7]. Put plainly: Inhibition of human STAT6 expressed in BEAS2B cells assessed as IL4-induced eotaxin-3 secretion after 24 hrs by ELISA.
The target of series [8] is T1, Signal transducer and activator of transcription 6 (Homo sapiens). The series is described as follows: Inhibition of human STAT6 expressed in 293-EBNA cells assessed as inhibition of IL4-induced STAT6 transcriptional activation at 10 uM after 1 hr by Photinus pylaris luciferase reporter gene assay. Type of series: cell-based.
In series [9] the target is T2, Signal transducer and activator of transcription 6 (Homo sapiens, UniProt P42226).
T2 sequence (P42226 whole entry): T1 sequence (whole entry)
The series is described as follows: Inhibition of human STAT6 expressed in 293-EBNA cells assessed as inhibition of IL4-induced STAT6 transcriptional activation after 1 hr by Photinus pylaris luciferase reporter gene assay. Type of series: cell-based.

The target of series [10] is Signal transducer and activator of transcription 6 (Homo sapiens) (UniProt P42226). Put plainly: Inhibition of human STAT6 expressed in BEAS2B cells assessed as IL4-induced eotaxin-3 secretion at 10 uM after 24 hrs by ELISA.
A short description of series [11]: Cytotoxicity against human 293-EBNA cells assessed as effect on luciferase activity at 10 uM after 1 hr by Photinus reniformis luciferase reporter gene assay. Type of series: cell-based.
Series [12] deals with Tyrosine-protein kinase JAK2 (Homo sapiens) (UniProt O60674). The series is described as follows: Inhibition of JAK2 up to 10 uM after 30 mins by colorimetric ELISA.
The target in series [13] is Signal transducer and activator of transcription 6 (Homo sapiens) (UniProt P42226). The series is described as follows: Inhibition of human STAT6 expressed in BEAS2B cells assessed as […]/TNFalpha-induced eotaxin-3 secretion in presence of TNFalpha at 10 uM after 24 hrs by ELISA.
The target is the same in series [14]. The series is described as follows: Inhibition of human STAT6 expressed in BEAS2B cells assessed as […]-induced eotaxin-3 secretion at 10 uM after 24 hrs by ELISA.
Series [15] concerns the target T2, Signal transducer and activator of transcription 6. Put plainly: Binding affinity at human recombinant STAT6 by SPR analysis.
In series [16] the target is Signal transducer and activator of transcription 6 (Homo sapiens) (UniProt P42226). The series is described as follows: Inhibition of human STAT6 expressed in BEAS2B cells assessed as IL4/TNFalpha-induced eotaxin-3 secretion at 10 uM after 24 hrs by ELISA.
Series [17] concerns the target T1, Signal transducer and activator of transcription 6 (Homo sapiens). The series is described as follows: Inhibition of human STAT6 expressed in 293-EBNA cells assessed as inhibition of IL4-induced STAT6 transcriptional activation at 10 uM after 1 hr by Renilla reniformis luciferase reporter gene assay. Format: cell-based.

The source made the active and inactive calls. The calls are words filed in the database; no cut-off is given here.

Tyrosine-protein kinase JAK2 (Homo sapiens), sequence (O60674 whole entry): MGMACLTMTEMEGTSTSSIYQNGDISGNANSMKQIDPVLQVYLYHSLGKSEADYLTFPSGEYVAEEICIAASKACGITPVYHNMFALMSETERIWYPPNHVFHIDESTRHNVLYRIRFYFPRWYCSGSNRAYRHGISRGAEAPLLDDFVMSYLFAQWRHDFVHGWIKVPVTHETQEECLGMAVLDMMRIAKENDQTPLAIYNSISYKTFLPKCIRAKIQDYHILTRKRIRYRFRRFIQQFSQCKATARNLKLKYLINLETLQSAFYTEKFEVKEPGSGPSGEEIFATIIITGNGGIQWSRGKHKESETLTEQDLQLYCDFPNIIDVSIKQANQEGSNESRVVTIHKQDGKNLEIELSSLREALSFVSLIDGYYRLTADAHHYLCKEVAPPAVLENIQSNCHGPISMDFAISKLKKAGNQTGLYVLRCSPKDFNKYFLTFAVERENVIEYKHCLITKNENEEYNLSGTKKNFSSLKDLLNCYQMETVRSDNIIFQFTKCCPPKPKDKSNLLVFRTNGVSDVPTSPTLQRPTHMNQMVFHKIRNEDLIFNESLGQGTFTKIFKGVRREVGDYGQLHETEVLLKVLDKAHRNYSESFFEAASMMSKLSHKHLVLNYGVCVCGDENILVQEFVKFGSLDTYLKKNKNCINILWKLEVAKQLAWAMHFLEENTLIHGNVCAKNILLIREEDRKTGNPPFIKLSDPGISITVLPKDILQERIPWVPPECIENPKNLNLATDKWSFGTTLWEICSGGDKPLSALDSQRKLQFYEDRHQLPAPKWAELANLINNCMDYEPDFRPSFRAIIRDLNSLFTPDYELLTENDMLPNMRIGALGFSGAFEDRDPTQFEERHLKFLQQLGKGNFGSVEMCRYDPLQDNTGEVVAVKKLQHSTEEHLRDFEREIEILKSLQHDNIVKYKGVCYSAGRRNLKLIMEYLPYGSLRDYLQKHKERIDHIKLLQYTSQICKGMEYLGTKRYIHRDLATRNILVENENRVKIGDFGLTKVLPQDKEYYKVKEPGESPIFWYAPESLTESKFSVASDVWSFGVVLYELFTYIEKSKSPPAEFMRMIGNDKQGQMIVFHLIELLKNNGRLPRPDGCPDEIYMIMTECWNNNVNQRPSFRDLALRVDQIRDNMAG

Usually IC50 stands for the concentration needed to halve the response being measured. As a reminder, the Kd is the free concentration of one partner at which half of the binding sites on the other are occupied at equilibrium, for simple one-to-one binding. As to `CC(C)[C@@H](C)NC(=O)c1cc(-c2cc3ccccc3n2C)cc(C(=O)NCCc2ccccn2)n1`, the inhibition entry in [1], in [4], in [6], in [8], in series [10] and in [13] was “Active” in each case. The inhibition result in [14], in series [16] and in [17] was “Active” each time. The inhibition result in series [2], in series [3] and in [12] was “inactive” each time. The Activity result in series [5] and in series [11] was “Non-toxic” each time. Further, the values for the IC50 in [7] and in [9] were 2740 nM and 2700 nM, respectively. The Kd in [15] worked out at 656 nM.

As to `CN(CCc1ccccc1)C(=O)c1csc2c1CCC/C2=N/O`, the inhibition result in [1], in series [2], in series [3] and in series [4] was “inactive” in each case. Besides, the Kd in series [15] worked out at 74000 nM.

In the case of `CC(C)[C@@H](C)NC(=O)c1cc(-c2cc3ccccc3s2)cc(C(=O)NCCc2ccccn2)n1`, the inhibition entry in series [1], in series [4], in series [8] and in series [17] was “Active” in each case. The inhibition entry in series [2], in series [3] and in series [12] was “inactive” throughout. Further, the Activity result in series [5] and in series [11] was “Non-toxic” in each case. For the same compound, the IC50 in series [9] was 3200 nM. The Kd in [15] turned out to be 701 nM.
